Data set [1] concerns lung (NCI-H157 and NCI-H1299), breast (MCF-7), pancreatic (CAPAN) and prostate (PC-3) cancer cell lines. Put plainly: MTT assay, Taxol with or without SNVIPhyb, summary over epithelial cancer cell lines. For orientation: Tetrazolium assays rely on reduction of a dye to a coloured formazan, in cell work by metabolically active cells.
Excerpt: The effects of SNVIPhyb were then investigated in the presence of Taxol, which affects microtubules, causing dividing cells to arrest in the mitosis (M) phase of growth.
The effect of SNVIPhyb was investigated on other epithelial cancer cell lines.
The test system of data set [2] is PC-3 prostate cancer cell line. In words: MTT assay, Taxol with or without SNVIPhyb. It counts as cell-based. An excerpt:
(§1) The ability of SNVIPhyb to inhibit cancer growth was investigated.

Data set [3] deals with NCI-H157 lung cancer cell line. In words: MTT assay, Taxol with or without SNVIPhyb. It counts as cell-based. To be noted: Homo sapiens.
Excerpt: as §1

Data set [4] deals with CAPAN pancreatic cancer cell line. Put plainly: MTT assay, Taxol with or without SNVIPhyb. In kind it is cell-based.
Excerpt: as §1

Data set [5] deals with NCI-H1299 lung cancer cell line. In words: MTT assay, Taxol with or without SNVIPhyb. It counts as cell-based. The settings on record: Homo sapiens.
Excerpt: as §1

In data set [6] the test system is MCF-7 breast cancer cells. In words: MTT assay, Taxol with or without SNVIPhyb. It counts as cell-based. To be noted: for IC50: Homo sapiens, MCF7.
Excerpt: as §1

In data set [7] the test system is NCI-H727 non-small cell lung cancer (carcinoid). Put plainly: MTS cell proliferation assay, SNH and chemotherapy. The settings on record: for nature of the combined effect with SNH: combination with SNH. It counts as cell-based. Here is the method:
NCI-H727 and LNCaP were grown in RPMI 1640 medium supplemented with 10% heat inactivated FCS, L-glutamine and antibiotics. HT-29 and CT-26 were grown in DMEM medium supplemented with 10% heat-inactivated FCS (fetal calf serum), L-glutamine and antibiotics. The cells were cultured in 5% CO2/95% air at […] and used during their exponential growth phase. Routinely, the cells which are adherent, were split when a subconfluent monolayer was formed. In different experiments, various concentration of FCS were used. For growth inhibition experiments, subconfluent adherent cells were washed with PBS and treated with trypsin/versene. The cells were pelleted and resuspended in medium to a final concentration of 75,000 cells/mL for NCI-H727. 50,000 cells/mL for LNCaP and HT-29 and 25000 cells/mL for CT-26. These different concentrations were used in order to avoid confluence in the wells at the end of the experiment and correspond to the different doubling times of the cell lines. On day 0, cells suspensions […] were dispensed using a multi-channel pipet into the individual wells of a 96-well tissue culture plate (Nuncion, Nunc Brand Products). […] Cells were incubated for 24 hours in a humidified atmosphere of 95% air/5% CO2 at 37° C. before treatment. On day 1, the cells were treated with different drugs and schedules and maintained under the same conditions. On day 4, viable cell number was determined by a modified MTT assay i.e., MTS non-radioactive cell proliferation assay (Promega). […] Results were finally expressed as percentage of the control, which was obtained from the samples with no drug treatment. Dose-response curves were plotted using a Sigma-Plot software and statistically analyzed using Student test. To determine the effect of the lipophilic VIP antagonist SNH on cell proliferation, cells plated in 96-well microplates for 24 hours as described, were treated with various concentrations of SNH. The peptide was diluted in PBS and […] of the peptide solution was added to each well for a final concentration of the peptide between 10^−510^−9 M. The solvent was added to the control wells. […] A dose-response curve was obtained at concentrations ranging from 2 μM-10 μM (see, FIG. 2). […] The effects of an 8 hours treatment were slightly less, showing that most of the effect is in the initial hours of exposure and much more dose than time dependent. […] For the experiments with the combinations of VIP antagonists and chemotherapeutic agents, on day 0, the cells were plated for 24 hours in medium supplemented with 5% FCS. On day 1, the peptide was added to the wells followed 1 hour later by the chemotherapeutic agents. […] The chemotherapeutic drugs were tested over 7 concentrations, covering as much as possible of the dose response curve of each individual drug. 24 hours later, the medium was exchanged and the cells incubated under the same conditions for another 48 hours. On day 4 the number of viable cells was determined by MTS assay.

The test system of the next data set is MDA-MB231 xenografts. In words: MDA-MB231 breast cancer xenografts in nude mice. In kind it is in vivo, Balb/c nude mice. To be noted: after 4 weeks; VIPhyb 10 μg/day s.c., Taxol 1.5 mg i.p. once; PBS control 1121 mm^3. How it is done: To test the proliferative aspects of VIPhybrid analogs in vivo, nude mice bearing breast cancer xenografts were utilized. Female athymic Balb/c nude mice, 4-5 weeks old, were housed in a pathogen-free temperature controlled isolation room and the diet consisted of autoclaved rodent chow and autoclaved water given ad libitum. MDA-MB231 cells (1×10^7) were injected into the right flank of each mouse subcutaneously. […] PBS (100 μl) or VIPhyb analogs (10 μg/day) were injected subcutaneously adjacent to the tumor. Taxol was injected once (1.5 mg i.p.) after 2 weeks. The tumor volume (height×width×depth) was determined twice weekly by calipers and recorded.

The subject of data set [8] is NCI-H727 non-small cell lung cancer (carcinoid). In words: MTS cell proliferation assay, SNH and chemotherapy. It counts as cell-based. To be noted: 8 μM SNH 2 h, then Taxol 0.003-1 μg/ml 4 h, then fresh medium 66 h.
In another data set the test system is HT-29 human colon cancer. In words: MTS cell proliferation assay, SNH and chemotherapy. In kind it is cell-based. To be noted: HT-29, SNH and CPT-11 (FIG. 11). Here is the method:
NCI-H727 and LNCaP were grown in RPMI 1640 medium supplemented with 10% heat inactivated FCS, L-glutamine and antibiotics. HT-29 and CT-26 were grown in DMEM medium supplemented with 10% heat-inactivated FCS (fetal calf serum), L-glutamine and antibiotics. The cells were cultured in 5% CO2/95% air at […] and used during their exponential growth phase. Routinely, the cells which are adherent, were split when a subconfluent monolayer was formed. In different experiments, various concentration of FCS were used. For growth inhibition experiments, subconfluent adherent cells were washed with PBS and treated with trypsin/versene. The cells were pelleted and resuspended in medium to a final concentration of 75,000 cells/mL for NCI-H727. 50,000 cells/mL for LNCaP and HT-29 and 25000 cells/mL for CT-26. These different concentrations were used in order to avoid confluence in the wells at the end of the experiment and correspond to the different doubling times of the cell lines. […] On day 4, viable cell number was determined by a modified MTT assay i.e., MTS non-radioactive cell proliferation assay (Promega). […] Results were finally expressed as percentage of the control, which was obtained from the samples with no drug treatment. Dose-response curves were plotted using a Sigma-Plot software and statistically analyzed using Student test. […] On day 4 the number of viable cells was determined by MTS assay.

Data set [9] has as its system CT-26 murine colon cancer. Put plainly: MTS cell proliferation assay, SNH and chemotherapy. The settings on record: CT-26, SNH and CPT-11 (FIG. 10). It counts as cell-based. Here is the method: NCI-H727 and LNCaP were grown in RPMI 1640 medium supplemented with 10% heat inactivated FCS, L-glutamine and antibiotics. HT-29 and CT-26 were grown in DMEM medium supplemented with 10% heat-inactivated FCS (fetal calf serum), L-glutamine and antibiotics. The cells were cultured in 5% CO2/95% air at […] and used during their exponential growth phase. Routinely, the cells which are adherent, were split when a subconfluent monolayer was formed. In different experiments, various concentration of FCS were used.
For growth inhibition experiments, subconfluent adherent cells were washed with PBS and treated with trypsin/versene. The cells were pelleted and resuspended in medium to a final concentration of 75,000 cells/mL for NCI-H727. 50,000 cells/mL for LNCaP and HT-29 and 25000 cells/mL for CT-26. […]
On day 4, viable cell number was determined by a modified MTT assay i.e., MTS non-radioactive cell proliferation assay (Promega). Briefly, […] of freshly prepared MTS/PMS solution was added to each individual well and after 1-3 hours of incubation (the optimal time was determined for each cell line) absorbance at 490 nm was measured using a multiscan plate reader. Results were finally expressed as percentage of the control, which was obtained from the samples with no drug treatment. Dose-response curves were plotted using a Sigma-Plot software and statistically analyzed using Student test. […]

Data set [10] concerns cell lines derived from colon cancer and prostate cancer. Put plainly: MTS colorimetric proliferation assay, VIP antagonist with chemotherapeutic agents (Example I). In kind it is cell-based. To be noted: combination with stearyl-Nle17-neurotensis 6-11 VIP 7-28. How it is done:
Assays were performed with cell lines derived from colon cancer and prostate cancer. Proliferation was assessed using the MTS colorimetric assay of mitochondrial function for living cells. The VIP antagonist (stearyl-Nle17-neurotensis 6-11 VIP 7-28) was used.

The IC50 is the concentration needed to halve the response being measured.

In brackets after ≈: the same amount, converted by molar mass. Entries after “also recorded” stand apart in the source; their conditions may differ. Read-outs that look alike come from different tables or passages of the source.

As for `CC(=O)O[C@H]1C(=O)[C@@]2(C)[C@H]([C@H](OC(=O)c3ccccc3)[C@]3(O)C[C@H](OC(=O)[C@H](O)[C@@H](NC(=O)c4ccccc4)c4ccccc4)C(C)=C1C3(C)C)[C@]1(OC(C)=O)CO[C@@H]1C[C@@H]2O` [Taxol], the “interaction with SNVIPhyb at inhibiting cancer cell proliferation” value in data set [1] (combination with SNVIPhyb) is on record as “synergistic”. Besides, the “increase of potency in the presence of SNVIPhyb” value in [1] (epithelial cancer cells) is recorded as 3-6 fold. The IC50 in data set [1] (read-out: IC50 values over the cell lines) is 8 to 15 µg/mL (≈ 9.37 to 17.6 µM); in data set [1] (read-out: IC50 values over the cell lines in the presence of 10 μM SNVIPhyb) it was 2.5 to 5 µg/mL; in data set [2] (PC-3, 10 μM SNVIPhyb, read-out: IC50 with 10 μM SNVIPhyb), 5 µg/mL (≈ 5.86 µM); in data set [2] (PC-3, Taxol alone, read-out: IC50) it was 15 µg/mL (≈ 17.6 µM); in [3] (NCI-H157, 10 μM SNVIPhyb, read-out: IC50 with 10 μM SNVIPhyb), 2.5 µg/mL (≈ 2.93 µM); in data set [3] (NCI-H157, Taxol alone, read-out: IC50) it was 10 µg/mL (≈ 11.7 µM). Further, the IC50 in data set [4] (10 μM SNVIPhyb, read-out: IC50 with 10 μM SNVIPhyb) came out at 3 µg/mL (≈ 3.51 µM); in [4] (Taxol alone, read-out: IC50), 10 µg/mL (≈ 11.7 µM); in data set [5] (NCI-H1299, 10 μM SNVIPhyb, read-out: IC50 with 10 μM SNVIPhyb) it was 3 µg/mL (≈ 3.51 µM); in [5] (NCI-H1299, Taxol alone, read-out: IC50), 8 µg/mL (≈ 9.37 µM); in data set [6] (MCF-7, 3 μM SNVIPhyb, read-out: IC50 in the presence of 3 μM SNVIPhyb) it was 24 µg/mL; in data set [6] (MCF-7, 10 μM SNVIPhyb, read-out: IC50 with 10 μM SNVIPhyb), 2 µg/mL (≈ 2.34 µM). Further, the IC50 in [6] (MCF-7, Taxol alone, read-out: IC50) was 12 µg/mL (≈ 14.1 µM). Also, the “increase of cytotoxicity by SNVIPhyb” value in data set [6] (MCF-7, combination with SNVIPhyb) is given as “increases the cytotoxicity”. Also, the “effect on MCF-7 cells” value in [6] (Taxol at 1 μg/mL) was “little effect”. Further, the “nature of the combined effect with SNH” value in data set [7] was “very effective; also recorded: synergistic”. Also, the “tumor volume (height×width×depth)” value in the data set with MDA-MB231 xenografts is listed as 613 mm^3. Also, the “reduction of the IC50 of Taxol by SNH” value in [8] is recorded as “about 6 fold”.

Take `CCc1c2c(nc3ccc(OC(=O)N4CCC(N5CCCCC5)CC4)cc13)-c1cc3c(c(=O)n1C2)COC(=O)[C@]3(O)CC` [CPT-11]: in the data set on HT-29 human colon cancer, the “effect of the combination with SNH” value is given as “enhancing effect”. The “reduction of the IC50 of the chemotherapeutic agent by SNH” value in data set [7] (5 μM SNH, NCI-H727) is listed as “at least two-fold”. Besides, the “nature of the combined effect with SNH” value in data set [7] is “synergistic”. Besides, in [9], the “effect of the combination with SNH” value is on record as “enhancing effect”. In addition, in data set [10], the “effect of the combination with the VIP antagonist” value is “synergistic” and the “enhancement of the antiproliferative activity of the chemotherapeutic agent by the lipophilic VIP antagonist” value was “enhance the antiproliferative activity”.

Values taken from patent publication US6630124B1, “Combination therapy with VIP antagonist” (Ramot-University Authority for Applied Research and …, priority 1998, dated 2003).
